Data taken from patent publication US6689887B2, “Inhibition of human telomerase by a G-quadruplex-interaction compound” (Board of Regents, The University of Texas System, priority 1998, dated 2004).
Values belong to the compound of their own block, whether it stands above or below them.

Legend:
d(TTAGGG)4 G-quadruplex = test: NMR imino proton titration of G-quadruplex; assay type: binding, human; details: overall stoichiometry 1:1, 500 MHz
Description: (C) Compounds may be selected for their ability to interact with human DNA G-quadruplex as indicated by NMR spectroscopy. The imino proton spectrum (9-12 ppm) of a solution of d(TTAGGG)4 (SEQ ID No. 1) in D2O/H2O (10:90) was determined at 500 MHz. Aliquot of N,N′-bis(2-piperdinoethyl)-3,4,9,10-perylenetetracarboxylic acid diimide were added and the imino proton spectrum recorded.

[1] = system: G-quadruplex in template DNA PQ74; test: DNA Synthesis Arrest Assay (Taq polymerase primer extension, PQ74 template); assay type: biochemical
Description: It has been shown that DNA sequences with quadruplex-forming potential present obstacles to DNA synthesis by DNA polymerases in a K^+ dependent manner. This K^+ dependent block to DNA polymerase is a selective and sensitive indicator of the formation of intramolecular quadruplexes (Weitzmann, et al., 1996).
The assay is a modification of that described by Weitzmann, et al. Briefly, primers (24 nM, sequence: 5′-TAATACGACTCACTATAG-3′) (SEQ ID No. 9) labeled with [γ-^32P]ATP were mixed with template DNA PQ74(12 nM, sequence: […] […]-3′) (SEQ ID No. 10) in a Tris-HCl buffer (10 mM Tris, pH 8.0) containing 5 mM K^+ and heated at 90° C. for 4 mm. After cooling at room temperature for 15 mm. potential G-quadruplex-interactive compounds were then added to various concentrations. The primer extension reactions were initiated by adding dNTP (final concentration 100 μM), MgCl2 (final concentration 3 mM) and Taq polymerase (2.5 U/reaction, Boehringer Mannheim). The reactions were incubated at 55° C. for 15 mm. then stopped by adding an equal volume of stop buffer (95% formamide, 10 mM EDTA; 10 mM NaGH, 0.1% xylene cyanol. 0.1% bromophenol blue). The products were separated on a 12% polyacrylamide sequencing gel. The gels were then dried and visualized on a phosphorimager (Molecular Dynamics model 445 S1).
Using the DOCK screening methods above, the carbocyanine group of compounds were identified as potential G-quadruplex interactive agents. […] Each compound was assayed at a concentration of 20 μM.

telomerase = test: Standard telomerase primer extension assay without PCR amplification; assay type: biochemical, human; details: at 50 μM, confirmatory tests
Description: The identified inhibitors may be used therapeutically to interfere with the function of telomerase and thus to treat cancers.
Briefly, the 18-mer telomeric primer d[TTAGGG]3 (SEQ ID No. 1) (1 μM) without or with N,N′-bis(2-dimethylaminoethyl)-3,4,9,10-perylenetetracarboxylic acid diimide was elongated with telomerase in the presence of 1.5 μM of [α-^32P]-dGTP (800 Ci mmol^−1, 10 mCi ml^−1) with 1 mM dATP and 1 mM dTTP. The extension products were isolated and visualized by autoradiography after denaturing gel electrophoresis.

d(TTAGGGT)4 G-quadruplex = test: UV/VIS spectroscopy titration with G-quadruplex; assay type: binding, human; details: 20 μM compound, 0-80 μM quadruplex, overnight, pH 7.0
Description: (B) Compounds may be selected for their ability to interact with human DNA G-quadruplex as indicated by UV/VIS spectroscopy. To a 10 μM solution of N,N′-bis(2-dimethylaminoethyl)-3,4,9,10-perylenetetracarboxylic acid diimide in 20 mM phosphate buffer containing 100 mM KCl, pH 7.0 in a quartz cuvette was added 10 μL aliquots of a 3 mM solution of d(TTAGGGT)4 (SEQ ID No. 6). After each addition the UV/VIS spectrum was recorded.
(§1) The N,N′-bis(3-morpholinopropyl)3,4,9,10-perylenetetracarboxilic acid diimide (KeTEL01) was synthesized from 3,4,9,10-perylenetetracarboxylic acid dianhydride and 3-morpholinopropylamine using a procedure analogous to that described above in example 5.3 for the synthesis of N,N′-bis(2-piperdinoethyl)-3,4,9,10-perylenetetracarboxylic acid diimide. A solution of KeTEL01 was prepared by dissolving 1 mg of KeTEL01 in 300 μL of 1 N HCl. To this solution was added 11 mL of a pH 7.0 buffer containing 20 mM sodium phosphate, 100 mM KCl, 1 mM EDTA, and 0.02% hydroxypropyl-β-cyclodextrin. Aliquots of this stock solution of KeTEL01 were transferred to 8 different quartz cuvettes and diluted into pH 7.0 mM sodium phosphate, 100 mM KCl, 1 mM EDTA buffer to afford solutions in which the concentration of KeTEL01 was 20 μM. To each of the cuvettes was added a solution of [d(TTAGGGT)]4 (SEQ ID No. 6) so that the final concentration of [d(TTAGGGT)]4 (SEQ ID No. 6) in each of the cuvettes was 0, 4, 8, 12, 16, 20, 50, and 80 μM. These solutions were allowed to stand overnight in the dark, and the UV/VIS spectrum of each was determined. […] In a parallel study, changes in the UV/VIS spectrum of a 20 μM solution of KeTEL01 in a pH 7.0 20 mM phosphate buffer containing 100 mM KCl and 1 mM EDTA were determined upon the addition of […] aliquots of a 3 mM (base pair) solution of calf thymus DNA.

[2] = system: calf thymus DNA (double-stranded DNA); test: UV/VIS spectroscopy with double-stranded DNA; assay type: binding; details: 20 μM compound, pH 7.0, 100 mM KCl
Description: as §1

[3] = system: [d(TTAGGGT)]4 G-quadruplex; test: Kinetics of interaction with G-quadruplex DNA (absorption at 488 nm); assay type: binding, human; details: 5 μM compound, 50 μM quadruplex, pH 7.0
Description: A solution of 5 μM KeTEL01 in 20 mM phosphate buffer, 100 mM KCl, pH 7.0 was placed in a quartz cuvette and the UV/VIS spectrum determined. An aliquot of a solution of [d(TTAGGGT)]4 (SEQ ID No. 6) was added to the cuvette to afford a final concentration of 50 μM. The cuvette was quickly inverted several times and placed in the spectrophotometer. The absorption of the sample at 488 nm was continuously monitored for 3 hours, during which time, the absorption decreased in a multiexponential function. The time required for the absorption at 488 nm to reach one-half of its equilibrium value was 60 mm.

MCF-7 = test: MTT cytotoxicity assay, MCF-7; assay type: cell-based, human; details: MCF-7, 72 hours
Description: (§2) The ability of these compounds to inhibit the proliferative capacity of human cancer cells was determined by a standard MTT assay. Briefly, cells were incubated for 72 hours in the presence of various concentrations of compound, and the cell viability was determined by monitoring the formation of a colored formazan salt of the tetrazolium salt 3-(4,5-dimethylthiazol-2-yl)-2,5-diphenyl tetrazolium bromide (MTT) by viable cells.

BT-20 = test: MTT cytotoxicity assay, BT-20; assay type: cell-based, human; details: BT-20, 72 hours
Description: as §2

PC-3 = test: MTT cytotoxicity assay, PC-3; assay type: cell-based, human; details: PC-3, 72 hours
Description: as §2

Raji = test: MTT cytotoxicity assay, Raji; assay type: cell-based, human; details: 72 hours
Description: as §2

human cancer cells = test: MTT assay, human cancer cell lines; assay type: cell-based; details: 72 hours; highest concentration tested 100 μM
Description: as §2

[4] = system: G-quadruplex of PQ74 template (four repeats of TTGGGG); test: DNA synthesis arrest assay with BSU-1051, PQ74 template; assay type: biochemical
Description: (§3) This assay is a modification of that described by Weitzmann and co-workers (Weitzmann et al., 1996). Briefly, primers (P18, 24 nM) labeled with [γ-^32P] were mixed with template DNA (12 nM)) in a Tris-HCl buffer (10 mM Tris, pH 8.0) containing K^+ (5 mM for the PQ74 template and 50 mM for the HT4 template) and denatured by heating at 90° C. for 5 min. After cooling down to room temperature, BSU-1051 was added at various concentrations and incubated at room temperature for 15 min. The primer extension reactions were initiated by adding dNTP (final concentration 100 μM), MgCl2 (final concentration […]), and Taq DNA polymerase (2.5 U/reaction, Boehringer Mannheim). For sequencing reactions, the TaqTrack Sequencing System (Promega, Wis., Madison) was used. The sequencing reaction buffer was changed to 50 mM Tris-HCl, pH 9.0, 10 mM MgCl, and 50 mM K^+. The reactions were stopped by adding an equal volume of stop buffer (95% formamide, 10 mM EDTA, 10 mM NaOH, 0.1% xylene cyanol, 0.1% bromphenol blue). For the temperature-dependent studies, the ligand concentration was fixed and the primer extension reactions were carried out at the temperatures indicated in methods. The products were separated on a 12% polyacrylamide sequencing gel. The gels were then dried and visualized on a PhosphorImager (Molecular Dynamics model 445 S1).
Although it has been shown that G-quadruplex structures block primer extension by DNA polymerase in a K^+ dependent manner (Weitzmann et at., 1996), the inventors are unaware of any reports showing enhanced blockage by G-quadruplex—interactive agents. To determine if BSU-1051 binding to G-quadruplex enhances the block to DNA synthesis, primer extension reactions were carried out in the absence and presence of BSU-1051. Taq DNA polymerase primer extension on DNA templates containing four repeats of either TTGGGG (SEQ ID No. 7) (PQ74) or TTAGGG (SEQ ID No. 1) (HT4) in the presence of different concentrations of BSU-1051 at 55° C. were performed. […]

[5] = system: G-quadruplex of HT4 template (four repeats of TTAGGG); test: DNA synthesis arrest assay with BSU-1051, HT4 template; assay type: biochemical, human
Description: as §3, with “S1). […]” for “S1).”

[6] = system: 7-deaza-dG substituted HT4 and PQ74 templates; test: Primer extension on 7-deaza-dG substituted templates; assay type: biochemical; details: BSU-1051 up to 50 μM
Description: as §3, with “S1). […]” for “S1).”

Structure (SMILES): O=C1c2ccc3c4ccc5c6c(ccc(c7ccc(c2c37)C(=O)N1CCN1CCCCC1)c64)C(=O)N(CCN1CCCCC1)C5=O [N,N′-bis(2-piperdinoethyl)-3,4,9,10-perylenetetracarboxylic acid diimide]
upfield shift of G6 imino resonance (d(TTAGGG)4 G-quadruplex): > 0.2 ppm
DNA synthesis arrest (FIG. 8) ([1]; 0.5-50 μM, PQ sequence): DNA synthesis arrest

inhibition of telomerase (telomerase): 10-35%
Stop (F + P)rel: relative amount of both full-length and paused products ([1]; compound 20 μM): 88%
Stop (P/T)rel: relative ratio of paused products to total products ([1]; compound 20 μM): 139%
Structure (SMILES): CCN1/C(=C/C=C/c2sc3ccccc3[n+]2CC)Sc2ccccc21.[I-] [UT-SK-002, diethylthiocarbocyanine iodide]

Structure (SMILES): O=C1c2ccc3c4ccc5c6c(ccc(c7ccc(c2c37)C(=O)N1CCCN1CCOCC1)c64)C(=O)N(CCCN1CCOCC1)C5=O [KeTEL01, N,N′-bis(3-morpholinopropyl)3,4,9,10-perylenetetracarboxilic acid diimide]
hyperchromicity at 510 nm (d(TTAGGGT)4 G-quadruplex): ~40%
hyperchromicity at 548 nm (d(TTAGGGT)4 G-quadruplex): ~100%
hypochromicity at 488 nm (d(TTAGGGT)4 G-quadruplex): ~40%
changes in the UV/VIS spectrum upon addition of calf thymus DNA [2]: No changes
time required for absorption at 488 nm to reach one-half of its equilibrium value [3]: 60 min
IC50 (MCF-7): > 100 µM
IC50 (BT-20): > 100 µM
IC50 (PC-3): > 100 µM
IC50 (Raji): > 100 µM
cytotoxic effect, MTT (human cancer cells): no cytotoxic effect

temperature up to which polymerase pausing is observed ([4]; 20 μM BSU-1051, without ligand pausing almost lost at around 65° C.): 74 °C
primer extension by Taq DNA polymerase ([4]; 100 μM BSU-1051, 55° C., PQ74 or HT4 template): completely inhibited
temperature up to which polymerase pausing is observed ([5]; in the presence of BSU-1051, without ligand pausing fades out at 55° C.): 65 °C
polymerase pausing on 7-deaza-dG substituted templates [6]: no significant pausing
Structure (SMILES): C[N+]1(CCC(=O)Nc2ccc3c(c2)C(=O)c2ccc(NC(=O)CC[N+]4(C)CCCCC4CO)cc2C3=O)CCCCC1CO.[I-].[I-] (stereo not drawn) [BSU-1051]
ΔTm of G-quadruplex ([4]; 20 μM BSU-1051): about 20 °C
ΔTm of G-quadruplex ([5]; 20 μM BSU-1051): about 20 °C
